Reference: patent US20230292747A1, “Composition for use in agriculture” (Bayer Aktiengesellschaft, priority 2020, published 2023)
Where two headings read alike, the source gives them in different places.

Assays:
[1] = Measurement of water hardness before and after adding softeners (AQUADUR test strips); type: physicochemical
Procedure: (§1) • Soft water (Milli-Q water), self made hard water and very hard water collected from the field (sample A) were used in the assays. Self made hard water was prepared by adding magnesium sulfate to the tap water (440 mg MgSO4/1 L tap water) to achieve 25° d (˜445 ppm). […] The water softeners were used in concentrations described in Table 2. First, the softeners were added to Sample A, self made hard and soft water samples and the water hardness was determined with test strips (see Table 3). Next, Flipper (0,5%, corresponding to a fatty acid derivative content of 2.4 g/l) was mixed to the different water plus softener solutions and subsequently the samples were sprayed on plants infected with aphids. Additionally, another biological product based on fatty acid derivatives (product Neudosan® Neu available from Certis Europe B.V.) was tested in combination with the softener Slox and a softener based on TSCA(in the following named “Coded” (for concentrations see Table 2) in hard vs soft water against aphids as described above. The efficacy of Neudosan (0,5% and 1% corresponding to a fatty acid derivative content of 2.575 g/l and 5,15 g/1) was compared to the efficacy of Flipper (0,5% and 1% corresponding to a fatty acid derivative content of 2.4 g/l and 4,8 g/1) with and without softeners (see Table 5). • Four single-leaf pepper or cotton plants infected with mixed population of Myzus persicae or Aphis gossypii were used in the bioassays. The infected plants were sprayed with the prepared solutions by using an automatic spraying system machine with integrated residue drying and afterwards incubated in a greenhouse chamber under controlled conditions (25±1° C. and 55±5% RH).

[2] = test system: Myzus persicae; test: Aphid spray bioassay on infected pepper plants, insect mortality on day seven post treatment; type: in vivo; conditions: day 7
Procedure: (§2) • The laboratory colonies of Myzus persicae and Aphis gossypii were reared on pea and cotton plants under controlled conditions 25±1° C. and a 55±5% relative humidity. • Experiments were conducted at RT using pepper (Capsicum annuum) for Myzus persicae and cotton (Gossypium herbaceum) for Aphis gossypii.
as §1
(§3) The tests were conducted according to the protocol described in Example 1.

[3] = test system: Aphis gossypii; test: Aphid spray bioassay on infected cotton plants, insect mortality on day seven post treatment; type: in vivo
Procedure: as §2, §1, §3

[4] = test system: pepper (Capsicum annuum); type: in vivo; conditions: pepper plants
[5] = test system: cotton (Gossypium herbaceum); conditions: cotton plants
Procedure: as §2
• Soft water (Milli-Q water), self made hard water and very hard water collected from the field (sample A) were used in the assays. Self made hard water was prepared by adding magnesium sulfate to the tap water (440 mg MgSO4/1 L tap water) to achieve 25° d (˜445 ppm). […] The water softeners were used in concentrations described in Table 2. First, the softeners were added to Sample A, self made hard and soft water samples and the water hardness was determined with test strips (see Table 3). Next, Flipper (0,5%, corresponding to a fatty acid derivative content of 2.4 g/l) was mixed to the different water plus softener solutions and subsequently the samples were sprayed on plants infected with aphids. […]

[6] = field collected water Sample A (>25 °D before), softener at % printed in row
[7] = field collected water Sample A (>445 ppm before), converted 1 °D = 17.8 ppm
[8] = self made hard water (25 °D before), softener at % printed in row
[9] = self made hard water (445 ppm before), converted 1 °D = 17.8 ppm
[10] = soft water (0 ppm before), converted 1 °D = 17.8 ppm
[11] = soft water (Milli-Q, 0 °D before), softener at % printed in row
[12] = 0.5% Flipper + named softener (% printed in row) in self made hard water
[13] = 0.5% Flipper + named softener (% printed in row) in soft water
[14] = 0.5% Flipper + named softener (% printed in row) in self made hard water, cotton, day 7
[15] = 0.5% Flipper + named softener in self made hard water
[16] = 0.5% Flipper + named softener in soft water

| Compound | Water hardness after adding softener [1, 6] | Water hardness after adding softener [1, 7] | Water hardness after adding softener [1, 8] | Water hardness after adding softener [1, 9] | Water hardness after adding softener [1, 10] | Water hardness after adding softener [1, 11] | Efficacy of 0.5% Flipper against Myzus persicae, after adding softeners [2, 12] | Efficacy of 0.5% Flipper against Myzus persicae, after adding softeners [2, 13] | Efficacy of 0.5% Flipper against Aphis gossypii, after adding softeners [3, 14] | Efficacy of 0.5% Flipper against Aphis gossypii, after adding softeners ([3]; in vivo) | PTX [4, 15] | PTX [4, 16] | PTX [5, 15] | PTX [5, 16] | Efficacy of 0.5% Flipper against Aphis gossypii, after adding softeners ([3]; 0.5% Flipper + named softener (% printed in row) in soft water, cotton, day 7) |
| --- | --- | --- | --- | --- | --- | --- | --- | --- | --- | --- | --- | --- | --- | --- | --- |
| O=C(O)CN(CCN(CC(=O)O)CC(=O)O)CC(=O)O [EDTA, Ethylene diamine tetraacetate] | 0 °D | 0 ppm | 0 °D | 0 ppm | 0 ppm | 0 °D | 81.25% | 97% | 65% | 72.5 (slight % | strong | Strong | slight | 72.5 (slight | – |
| O=C([O-])CC(O)(CC(=O)[O-])C(=O)[O-].[Na+].[Na+].[Na+] [TSCA, Trisodium citric acid] | 20 °D | 356 ppm | 20 °D | 356 ppm | 0 ppm | 0 °D | 55% | 67.5% | 55% | – | – | – | – | – | 70% |
